Test results reported in US10597388B2, “Pyridazinone herbicides” (FMC CORPORATION, priority 2014, dated 2020).

Assays:
Assay in all cases: Test E greenhouse herbicide test, pre- and postemergence
Type in all cases: in vivo
soybean (Glycine max) = test system: soybean (Glycine max)
Method in brief: (§1)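 Scores (0–100, visual, vs controls) reflect greenhouse growth of 14 to 21 d after treatment. Application was pre-emergence to silt loam or post-emergence at the 1- to 4-leaf stage.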

[1] = test system: nutsedge, yellow (yellow nutsedge, Cyperus esculentus); conditions: Preemergence
Method in brief: as §1

[2] = test system: foxtail, green (green foxtail, Setaria viridis); conditions: Preemergence
Method in brief: as §1

[3] = test system: arrowleaf sida (Sida rhombifolia)
Method in brief: as §1

[4] = test system: barnyardgrass (Echinochloa crus-galli)
Method in brief: as §1

[5] = test system: sandbur (southem sandbur, Cenchrus echinatus)
Method in brief: as §1

[6] = test system: Italian ryegrass (Lolium multiflorum)
Method in brief: as §1

[7] = test system: crabgrass, Brazilian (Brazilian crabgrass, Digitaria horizontalis)
Method in brief: as §1

[8] = test system: momingglory (Ipomoea coccinea); conditions: Preemergence
Method in brief: as §1

[9] = test system: dayflower (Virginia (VA) dayflower, Commelina virginica)
Method in brief: as §1

[10] = test system: horseweed (Conyza canadensis); conditions: Postemergence
Method in brief: as §1

[11] = test system: goosegrass (Eleusine indica); conditions: Preemergence
Method in brief: as §1

[12] = test system: panicum, fall (fall panicum, Panicum dichotomiflorum)
Method in brief: as §1

[13] = test system: ragweed (common ragweed, Ambrosia elatior)
Method in brief: as §1

corn (Zea mays) = test system: corn (Zea mays)
Method in brief: as §1

[14] = 62 g ai/ha, Postemergence, scale 0 to 100 (0 no effect, 100 complete control)
[15] = 62 g ai/ha, Preemergence, scale 0 to 100 (0 no effect, 100 complete control)
[16] = 125 g ai/ha, Postemergence, scale 0 to 100 (0 no effect, 100 complete control)
[17] = 125 g ai/ha, Preemergence, scale 0 to 100 (0 no effect, 100 complete control)
[18] = 250 g ai/ha, Postemergence, scale 0 to 100 (0 no effect, 100 complete control)
[19] = Postemergence, 31 g ai/ha, visual, scale 0 no effect to 100 complete control
[20] = Preemergence, 31 g ai/ha, scale 0 to 100, 0 no effect, 100 complete control
[21] = Preemergence, 250 g ai/ha, visual, scale 0 no effect to 100 complete control
[22] = 62 g ai/ha, scale 0 to 100 (0 no effect, 100 complete control)
[23] = 125 g ai/ha, scale 0 to 100 (0 no effect, 100 complete control)
[24] = 31 g ai/ha, scale 0 to 100, 0 no effect, 100 complete control
[25] = 250 g ai/ha, visual, scale 0 no effect to 100 complete control
[26] = 125 g ai/ha, visual, scale 0 no effect to 100 complete control
[27] = Preemergence, 125 g ai/ha, visual, scale 0 no effect to 100 complete control

Cc1cc2ccccc2c(-c2c(O)c(C)nn(C)c2=O)c1C [Compound 34]
Plant response rating, Soybean (soybean (Glycine max); [14]): 40
Plant response rating, Soybean (soybean (Glycine max); [15]): 35
Plant response rating, Soybean (soybean (Glycine max); [16]): 70
Plant response rating, Soybean (soybean (Glycine max); [17]): 15
Plant response rating, Soybean (soybean (Glycine max); [18]): 60
Plant response rating, Soybean (soybean (Glycine max); [19]): 35
Plant response rating, Soybean (soybean (Glycine max); [20]): 0
Plant response rating, Soybean (soybean (Glycine max); [21]): 0
Plant response rating, Nutsedge, Yellow [1, 22]: 80
Plant response rating, Nutsedge, Yellow [1, 23]: 40
Plant response rating, Nutsedge, Yellow [1, 24]: 0
Plant response rating, Nutsedge, Yellow [1, 25]: 80
Plant response rating, Foxtail, Green [2, 22]: 0
Plant response rating, Foxtail, Green [2, 24]: 0
Plant response rating, Foxtail, Green [2, 26]: 25
Plant response rating, Foxtail, Green [2, 25]: 65
Plant response rating, Arrowleaf Sida [3, 14]: 60
Plant response rating, Arrowleaf Sida [3, 15]: 20
Plant response rating, Arrowleaf Sida [3, 16]: 70
Plant response rating, Arrowleaf Sida [3, 18]: 75
Plant response rating, Arrowleaf Sida [3, 19]: 65
Plant response rating, Arrowleaf Sida [3, 20]: 0
Plant response rating, Arrowleaf Sida [3, 27]: 65
Plant response rating, Arrowleaf Sida [3, 21]: 80
Plant response rating, Barnyardgrass [4, 14]: 40
Plant response rating, Barnyardgrass [4, 15]: 0
Plant response rating, Barnyardgrass [4, 16]: 40
Plant response rating, Barnyardgrass [4, 18]: 40
Plant response rating, Barnyardgrass [4, 19]: 30
Plant response rating, Barnyardgrass [4, 20]: 0
Plant response rating, Barnyardgrass [4, 27]: 35
Plant response rating, Barnyardgrass [4, 21]: 65
Plant response rating, Sandbur [5, 14]: 80
Plant response rating, Sandbur [5, 15]: 40
Plant response rating, Sandbur [5, 16]: 85
Plant response rating, Sandbur [5, 17]: 65
Plant response rating, Sandbur [5, 18]: 90
Plant response rating, Sandbur [5, 19]: 70
Plant response rating, Sandbur [5, 20]: 0
Plant response rating, Sandbur [5, 21]: 70
Plant response rating, Ryegrass, Italian [6, 14]: 80
Plant response rating, Ryegrass, Italian [6, 15]: 100
Plant response rating, Ryegrass, Italian [6, 16]: 85
Plant response rating, Ryegrass, Italian [6, 17]: 100
Plant response rating, Ryegrass, Italian [6, 18]: 90
Plant response rating, Ryegrass, Italian [6, 19]: 65
Plant response rating, Ryegrass, Italian [6, 20]: 90
Plant response rating, Ryegrass, Italian [6, 21]: 100
Plant response rating, Crabgrass, Brazil [7, 14]: 40
Plant response rating, Crabgrass, Brazil [7, 15]: 10
Plant response rating, Crabgrass, Brazil [7, 16]: 50
Plant response rating, Crabgrass, Brazil [7, 18]: 50
Plant response rating, Crabgrass, Brazil [7, 19]: 40
Plant response rating, Crabgrass, Brazil [7, 20]: 0
Plant response rating, Crabgrass, Brazil [7, 27]: 80
Plant response rating, Crabgrass, Brazil [7, 21]: 80
Plant response rating, Morningglory [8, 22]: 25
Plant response rating, Morningglory [8, 23]: 35
Plant response rating, Morningglory [8, 24]: 0
Plant response rating, Morningglory [8, 25]: 90
Plant response rating, Dayflower, VA [9, 14]: 80
Plant response rating, Dayflower, VA [9, 15]: 35
Plant response rating, Dayflower, VA [9, 16]: 90
Plant response rating, Dayflower, VA [9, 18]: 90
Plant response rating, Dayflower, VA [9, 19]: 60
Plant response rating, Dayflower, VA [9, 20]: 35
Plant response rating, Dayflower, VA [9, 27]: 70
Plant response rating, Dayflower, VA [9, 21]: 90
Plant response rating, Horseweed [10, 22]: 75
Plant response rating, Horseweed [10, 23]: 80
Plant response rating, Horseweed ([10]; 250 g ai/ha, scale 0 to 100 (0 no effect, 100 complete control)): 90
Plant response rating, Horseweed ([10]; 31 g ai/ha, visual, scale 0 no effect to 100 complete control): 85
Plant response rating, Goosegrass [11, 22]: 5
Plant response rating, Goosegrass [11, 24]: 5
Plant response rating, Goosegrass [11, 26]: 10
Plant response rating, Goosegrass [11, 25]: 10
Plant response rating, Panicum, Fall [12, 14]: 65
Plant response rating, Panicum, Fall [12, 15]: 80
Plant response rating, Panicum, Fall [12, 16]: 70
Plant response rating, Panicum, Fall [12, 17]: 90
Plant response rating, Panicum, Fall [12, 18]: 60
Plant response rating, Panicum, Fall [12, 19]: 50
Plant response rating, Panicum, Fall [12, 20]: 70
Plant response rating, Panicum, Fall [12, 21]: 95
Plant response rating, Ragweed [13, 14]: 85
Plant response rating, Ragweed [13, 15]: 75
Plant response rating, Ragweed [13, 16]: 90
Plant response rating, Ragweed [13, 17]: 100
Plant response rating, Ragweed [13, 18]: 100
Plant response rating, Ragweed [13, 19]: 90
Plant response rating, Ragweed [13, 20]: 70
Plant response rating, Ragweed [13, 21]: 100
Plant response rating, Corn (corn (Zea mays); [14]): 0
Plant response rating, Corn (corn (Zea mays); [15]): 0
Plant response rating, Corn (corn (Zea mays); [16]): 0
Plant response rating, Corn (corn (Zea mays); [18]): 5
Plant response rating, Corn (corn (Zea mays); [19]): 0
Plant response rating, Corn (corn (Zea mays); [20]): 0
Plant response rating, Corn (corn (Zea mays); [27]): 0
Plant response rating, Corn (corn (Zea mays); [21]): 0
